Measured values taken from patent US8329755B2, “Methods for treating retroviral infections” (Roche Palo Alto LLC, priority 2004, dated 2012).

Compared with CCC(=O)NS(=O)(=O)c1ccc(NC(=O)Cc2ccc(Cl)c(Oc3cc(Cl)cc(C#N)c3)c2F)c(Cl)c1.[Na], N#Cc1cc(Cl)cc(Oc2c(Cl)ccc(CC(=O)Nc3ccc(S(=O)(=O)NC(=O)CO)cc3Cl)c2F)c1.[Na] is higher in melting point: 155.4 to 157.5 °C for the first, 178 to 179.5 °C for the second.

First: Cl.N#Cc1cc(Cl)cc(Oc2c(Cl)ccc(CC(=O)Nc3ccc(S(=O)(=O)NC(=O)CCN)cc3Cl)c2F)c1
Second: COCCC(=O)NS(=O)(=O)c1ccc(NC(=O)Cc2ccc(Cl)c(Oc3cc(Cl)cc(C#N)c3)c2F)c(Cl)c1.[Na]
The melting point of the first is higher: 199.3 to 199.6 °C for the first, 133.1 to 140.7 °C for the second.

First: COCC(=O)NS(=O)(=O)c1ccc(NC(=O)Cc2ccc(Cl)c(Oc3cc(Cl)cc(C#N)c3)c2F)c(Cl)c1.[Na]
Second: CC(C)CC(=O)NS(=O)(=O)c1ccc(NC(=O)Cc2ccc(Cl)c(Oc3cc(Cl)cc(C#N)c3)c2F)c(Cl)c1.[Na]
The melting point of the first is lower: 151.7 to 152.3 °C for the first, 159.3 to 163.4 °C for the second.

Compared with Cc1cc(C(=O)CN2CCOCC2)ccc1NC(=O)Cc1ccc(C)c(Oc2cc(Cl)cc(C#N)c2)c1.O=C(O)C(F)(F)F, Cl.N#Cc1cc(Cl)cc(Oc2c(Cl)ccc(CC(=O)Nc3ccc(S(=O)(=O)NC(=O)CN4CCOCC4)cc3Cl)c2F)c1 is higher in melting point: 110.3 to 110.5 °C for the first, 223.3 to 225 °C for the second.

First: CCCCC(=O)NS(=O)(=O)c1ccc(NC(=O)Cc2ccc(Cl)c(Oc3cc(Cl)cc(C#N)c3)c2F)c(Cl)c1.[Na]
Second: CC(C)CCC(=O)NS(=O)(=O)c1ccc(NC(=O)Cc2ccc(Cl)c(Oc3cc(Cl)cc(C#N)c3)c2F)c(Cl)c1.[Na]
The melting point of the first is lower: 157.6 to 159.2 °C for the first, 195.6 to 197 °C for the second.

First: CCN(CC)CC(=O)NS(=O)(=O)c1ccc(NC(=O)Cc2ccc(Cl)c(Oc3cc(Cl)cc(C#N)c3)c2F)c(Cl)c1.Cl
Second: CCC(=O)NS(=O)(=O)c1ccc(NC(=O)Cc2ccc(C)c(Oc3cc(Cl)cc(C#N)c3)c2F)c(Cl)c1.[Na]
The melting point of the first is higher: 195.3 to 197.2 °C for the first, 158.8 to 162 °C for the second.

First: Cc1cc(S(=O)(=O)NC(=O)[C@@H](N)C(C)C)ccc1NC(=O)Cc1ccc(Cl)c(Oc2cc(Cl)cc(C#N)c2)c1F.Cl
Second: Cc1cc(S(=O)(=O)NC(=O)c2cccnc2)ccc1NC(=O)Cc1ccc(Cl)c(Oc2cc(Cl)cc(C#N)c2)c1F.Cl
The melting point of the first is lower: 169 to 180.3 °C for the first, 261.8 to 263.6 °C for the second.

First: N#Cc1cc(Cl)cc(Oc2cc(CC(=O)Nc3ccc(S(N)(=O)=O)cc3)ccc2Cl)c1 [Compound I-1, 2-[4-Chloro-3-(3-chloro-5-cyano-phenoxy)-phenyl]-N-(4-sulfamoyl-phenyl)-acetamide]
Second: N#Cc1cc(C#N)cc(Oc2cc(CC(=O)Nc3ccc(S(N)(=O)=O)cc3)ccc2Cl)c1 [Compound I-2, 2-[4-Chloro-3-(3,5-dicyano-phenoxy)-phenyl]-N-(4-sulfamoyl-phenyl)-acetamide]
The melting point of the first is lower: 210.5 to 214 °C for the first, 218 to 219 °C for the second.

First: Cc1cc(OCCCS(N)(=O)=O)ccc1NC(=O)Cc1ccc(Cl)c(Oc2cc(Cl)ccc2Br)c1 [Compound I-3, 2-[3-(2-Bromo-5-chloro-phenoxy)-4-chloro-phenyl]-N-[2-methyl-4-(3-sulfamoyl-propoxy)-phenyl]-acetamide]
Second: Cc1cc(S(N)(=O)=O)ccc1NC(=O)Cc1ccc(C)c(Oc2cc(Cl)ccc2Br)c1 [Compound I-31, 2-[3-(2-Bromo-5-chloro-phenoxy)-4-methyl-phenyl]-N-(2-methyl-4-sulfamoyl-phenyl)-acetamide]
The melting point of the first is lower: 190.1 to 192.2 °C for the first, 200.5 to 203.5 °C for the second.

Compared with N#Cc1cc(C#N)cc(Oc2c(Cl)ccc(CC(=O)Nc3ccc(S(N)(=O)=O)cc3)c2F)c1 [Compound I-9, 2-[4-Chloro-3-(3,5-dicyano-phenoxy)-2-fluoro-phenyl]-N-(4-sulfamoyl-phenyl)-acetamide], N#Cc1cc(Oc2c(Cl)ccc(CC(=O)Nc3ccc(S(N)(=O)=O)cc3)c2F)cc(C(F)F)c1 [Compound I-13, 2-[4-Chloro-3-(3-cyano-5-difluoromethyl-phenoxy)-2-fluoro-phenyl]-N-(4-sulfamoyl-phenyl)-acetamide] is higher in melting point: 135.7 to 138.1 °C for the first, 214 to 218 °C for the second.

Compared with NS(=O)(=O)c1ccc(NC(=O)Cc2ccc(Cl)c(Oc3cc(Cl)cc(Cl)c3Cl)c2F)cc1 [Compound I-10, 2-[4-Chloro-2-fluoro-3-(2,3,5-trichloro-phenoxy)-phenyl]-N-(4-sulfamoyl-phenyl)-acetamide], CCc1ccc(CC(=O)Nc2ccc(S(N)(=O)=O)cc2)cc1Oc1cc(Cl)cc(Br)c1Cl [Compound I-35, 2-[3-(3-Bromo-2,5-dichloro-phenoxy)-4-ethyl-phenyl]-N-(4-sulfamoyl-phenyl)-acetamide] is lower in melting point: 247 to 249.9 °C for the first, 206.9 to 209.9 °C for the second.

First: Cc1ccc(CC(=O)Nc2ccc(S(N)(=O)=O)cc2)cc1Oc1cc(F)cc(C#N)c1 [Compound I-11, 2-[3-(3-Cyano-5-fluoro-phenoxy)-4-methyl-phenyl]-N-(4-sulfamoyl-phenyl)-acetamide]
Second: Cc1ccc(CC(=O)Nc2ccccc2Cl)cc1Oc1cc(F)cc(C#N)c1 [Compound I-12, N-(2-Chloro-phenyl)-2-[3-(3-cyano-5-fluoro-phenoxy)-4-methyl-phenyl]-acetamide]
The melting point of the first is higher: 165.8 to 168.1 °C for the first, 131.1 to 132.2 °C for the second.

Compared with N#Cc1cc(Oc2c(Cl)ccc(CC(=O)Nc3ccccc3Cl)c2F)cc(C(F)F)c1 [Compound I-14, 2-[4-Chloro-3-(3-cyano-5-difluoromethyl-phenoxy)-2-fluoro-phenyl]-N-(2-chloro-phenyl)-acetamide], N#Cc1cc(C#N)cc(Oc2c(Cl)ccc(CC(=O)Nc3ccccc3Cl)c2F)c1 [Compound I-28, 2-[4-Chloro-3-(3,5-dicyano-phenoxy)-2-fluoro-phenyl]-N-(2-chloro-phenyl)-acetamide] is higher in melting point: 169.5 to 171 °C for the first, 182.6 to 196.5 °C for the second.

Compared with CCc1ccc(CC(=O)Nc2ccc(S(N)(=O)=O)cc2)cc1Oc1cc(Cl)ccc1Br [Compound I-15, 2-[3-(2-Bromo-5-chloro-phenoxy)-4-ethyl-phenyl]-N-(4-sulfamoyl-phenyl)-acetamide], CCc1ccc(CC(=O)Nc2ccc(S(N)(=O)=O)cc2)cc1Oc1cc(Cl)ccc1Cl [Compound I-19, 2-[3-(2,5-Dichloro-phenoxy)-4-ethyl-phenyl]-N-(4-sulfamoyl-phenyl)-acetamide] is lower in melting point: 193.7 to 195.9 °C for the first, 190 to 193.4 °C for the second.

First: CCc1ccc(CC(=O)Nc2ccccc2Cl)cc1Oc1cc(Cl)ccc1Br [Compound I-16, 2-[3-(2-Bromo-5-chloro-phenoxy)-4-ethyl-phenyl]-N-(2-chloro-phenyl)-acetamide]
Second: CCc1ccc(CC(=O)Nc2ccccc2Cl)cc1Oc1cc(Cl)ccc1Cl [Compound I-21, N-(2-Chloro-phenyl)-2-[3-(2,5-dichloro-phenoxy)-4-ethyl-phenyl]-acetamide]
The melting point of the first is higher: 154 to 155.5 °C for the first, 146.3 to 147.1 °C for the second.

Compared with CCc1ccc(CC(=O)Nc2ccc(S(N)(=O)=O)cc2)cc1Oc1cc(Cl)ccc1C#N [Compound I-17, 2-[3-(5-Chloro-2-cyano-phenoxy)-4-ethyl-phenyl]-N-(4-sulfamoyl-phenyl)-acetamide], CCc1ccc(CC(=O)Nc2ccc(S(N)(=O)=O)cc2)cc1Oc1c(Cl)cccc1Cl [Compound I-20, 2-[3-(2,6-Dichloro-phenoxy)-4-ethyl-phenyl]-N-(4-sulfamoyl-phenyl)-acetamide] is higher in melting point: 198.1 to 202.6 °C for the first, 222.5 to 225 °C for the second.

Compared with CCc1ccc(CC(=O)Nc2ccccc2Cl)cc1Oc1cc(Cl)ccc1C#N [Compound I-18, 2-[3-(5-Chloro-2-cyano-phenoxy)-4-ethyl-phenyl]-N-(2-chloro-phenyl)-acetamide], CCc1ccc(CC(=O)Nc2ccccc2Cl)cc1Oc1c(Cl)cccc1Cl [Compound I-23, N-(2-Chloro-phenyl)-2-[3-(2,6-dichloro-phenoxy)-4-ethyl-phenyl]-acetamide] is lower in melting point: 168 to 169.9 °C for the first, 107 to 110.5 °C for the second.

First: CCc1ccc(CC(=O)Nc2ccc(S(N)(=O)=O)cc2)cc1Oc1cc(Cl)cc(Br)c1 [Compound I-22, 2-[3-(3-Bromo-5-chloro-phenoxy)-4-ethyl-phenyl]-N-(4-sulfamoyl-phenyl)-acetamide]
Second: CCc1ccc(CC(=O)Nc2ccccc2Cl)cc1Oc1cc(Cl)cc(Br)c1 [Compound I-24, 2-[3-(3-Bromo-5-chloro-phenoxy)-4-ethyl-phenyl]-N-(2-chloro-phenyl)-acetamide]
The melting point of the first is higher: 216.1 to 221.3 °C for the first, 119.9 to 122.2 °C for the second.

First: CC(C)c1ccc(CC(=O)Nc2ccc(S(N)(=O)=O)cc2)cc1Oc1cc(Cl)ccc1Br [Compound I-26, 2-[3-(2-Bromo-5-chloro-phenoxy)-4-isopropyl-phenyl]-N-(4-sulfamoyl-phenyl)-acetamide]
Second: Cc1ccc(CC(=O)Nc2ccc(S(N)(=O)=O)cc2)cc1Oc1cc(Cl)ccc1Br [Compound I-30, 2-[3-(2-Bromo-5-chloro-phenoxy)-4-methyl-phenyl]-N-(4-sulfamoyl-phenyl)-acetamide]
The melting point of the first is lower: 204.1 to 206.7 °C for the first, 236.9 to 239.3 °C for the second.

First: CC(C)c1ccc(CC(=O)Nc2ccccc2Cl)cc1Oc1cc(Cl)ccc1Br [Compound I-27, 2-[3-(2-Bromo-5-chloro-phenoxy)-4-isopropyl-phenyl]-N-(2-chloro-phenyl)-acetamide]
Second: Cc1ccc(CC(=O)Nc2ccccc2Cl)cc1Oc1cc(Cl)ccc1Br [Compound I-33, 2-[3-(2-Bromo-5-chloro-phenoxy)-4-methyl-phenyl]-N-(2-chloro-phenyl)-acetamide]
The melting point of the first is higher: 142.9 to 143.6 °C for the first, 133.9 to 135.9 °C for the second.

Compared with Cc1cc(S(N)(=O)=O)ccc1NC(=O)Cc1ccc(Cl)c(Oc2cc(C#N)cc(C#N)c2)c1F [Compound I-32, 2-[4-Chloro-3-(3,5-dicyano-phenoxy)-2-fluoro-phenyl]-N-(2-methyl-4-sulfamoyl-phenyl)-acetamide], Cc1ccc(CC(=O)Nc2ccccc2Cl)cc1Oc1cc(C#N)cc(C#N)c1 [Compound I-34, N-(2-Chloro-phenyl)-2-[3-(3,5-dicyano-phenoxy)-4-methyl-phenyl]-acetamide] is lower in melting point: 248.4 to 250.8 °C for the first, 175.1 to 177.5 °C for the second.

In the case of CCc1ccc(CC(=O)Nc2ccc(S(N)(=O)=O)cc2C)cc1Oc1cc(Cl)cc(Br)c1Cl [Compound I-36, 2-[3-(3-Bromo-2,5-dichloro-phenoxy)-4-ethyl-phenyl]-N-(2-methyl-4-sulfamoyl-phenyl)-acetamide], the melting point is reported as 213.2 to 219.6 °C.
